{"source": "patent US20060142323A1", "about": "“Dual binding site acetylcholinesterase inhibitors for the treatment of alzheimer's disease” (priority 2002, published 2006)", "key": {"[1]": {"tested_on": "SH—SY5Y cells exposed to H2O2", "assay": "Antioxidant activity (H2O2 exposure, LDH viability)", "type": "cell-based, human", "settings": "1 hour pretreatment, 24 hours H2O2, LDH", "method": "In order to evaluate if these compounds have antioxidant properties cells SH—SY5Y were exposed 24 hours to […] H2O2, previously these cells were pretreated for 1 hour with the molecules at different concentrations (from 10^−5 to 10^−9). The antioxidant activity is evaluated measuring cellular viability, using the LDH assay. Cells SH—SY5Y were cultured in 96-well plates as toxicity experiments."}, "BuChE from human serum": {"target": "T1, BuChE from human serum (Homo sapiens, UniProt P06276)", "T1 construct": "The assay solution consisted of 0.01 units BuChE from human serum; from tissue; host or cells: human serum", "T1 sequence (P06276 29-602)": "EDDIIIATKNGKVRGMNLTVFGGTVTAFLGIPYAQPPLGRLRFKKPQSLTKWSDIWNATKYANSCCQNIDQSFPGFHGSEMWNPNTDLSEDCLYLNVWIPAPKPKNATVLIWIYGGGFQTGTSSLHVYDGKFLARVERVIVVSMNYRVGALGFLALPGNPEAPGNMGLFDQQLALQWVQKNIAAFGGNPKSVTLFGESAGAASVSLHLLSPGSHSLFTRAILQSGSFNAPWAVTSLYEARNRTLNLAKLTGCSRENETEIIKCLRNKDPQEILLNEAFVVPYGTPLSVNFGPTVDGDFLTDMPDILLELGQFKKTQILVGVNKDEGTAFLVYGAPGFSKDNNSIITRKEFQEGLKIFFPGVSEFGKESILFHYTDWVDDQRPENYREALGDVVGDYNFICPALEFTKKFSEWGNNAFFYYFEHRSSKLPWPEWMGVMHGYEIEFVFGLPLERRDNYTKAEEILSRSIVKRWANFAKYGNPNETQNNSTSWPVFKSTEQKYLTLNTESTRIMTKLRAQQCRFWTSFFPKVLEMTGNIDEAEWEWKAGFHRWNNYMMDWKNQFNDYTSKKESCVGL", "assay": "Butyrylcholinesterase (BuChE) inhibition (from human serum)", "type": "biochemical", "settings": "human serum BuChE, 30° C., 10 min preincubation; read-out: IC50 BuChE", "method": "Butyrylcholinetersae (BuChE) Inhibition (from Human Serum)\nBuChE inhibitory activity was evaluated at 30° C. by the colorimetric method reported by Ellman (Ellman, G. L.; Courtney, K. D.; Andres, B.; Featherstone, R. M. Biochem. Pharmacol. 1961, 7, 88-95]. The assay solution consisted of 0.01 units BuChE from human serum, 0.1 M sodium phosphate buffer pH 8, 0.3 mM 5,5′-dithiobis (2-nitrobenzoic acid) (DTNB, Ellman's reagent), and 0.5 mM butylthiocholine iodide as the substrate of the enzymatic reaction. Enzyme activity was determined by measuring the absorbance at 405 nm during 5 minutes with a microplate reader Digiscan 340T. The tested compounds were preincubated with the enzyme for 10 minutes at 30° C. The reaction rate was calculated with, at least, triplicate measurements."}, "AChE peripheral site": {"target": "AChE peripheral site (Homo sapiens, UniProt P22303)", "sequence (P22303 32-614)": "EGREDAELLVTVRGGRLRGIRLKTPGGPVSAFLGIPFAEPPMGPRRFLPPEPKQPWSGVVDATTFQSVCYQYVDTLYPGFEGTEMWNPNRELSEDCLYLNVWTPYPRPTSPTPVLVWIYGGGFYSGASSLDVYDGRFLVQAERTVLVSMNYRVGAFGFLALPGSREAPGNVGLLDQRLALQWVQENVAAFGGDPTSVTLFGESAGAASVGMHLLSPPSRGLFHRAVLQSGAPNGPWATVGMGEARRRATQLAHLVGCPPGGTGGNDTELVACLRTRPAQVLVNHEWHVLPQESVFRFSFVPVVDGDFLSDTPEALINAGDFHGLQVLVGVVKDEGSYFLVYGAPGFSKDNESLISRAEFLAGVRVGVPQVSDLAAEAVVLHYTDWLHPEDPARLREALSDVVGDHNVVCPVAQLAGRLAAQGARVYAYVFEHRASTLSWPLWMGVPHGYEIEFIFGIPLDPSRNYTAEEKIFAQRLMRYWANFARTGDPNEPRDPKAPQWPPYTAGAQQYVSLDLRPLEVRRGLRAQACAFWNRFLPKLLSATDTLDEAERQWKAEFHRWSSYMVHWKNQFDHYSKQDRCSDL", "assay": "Propidium competition (fluorescence)", "type": "binding", "settings": "20 μM propidium iodide, AChE incubated at least 6 hours with compound", "method": "Fluorescence was measured in a Fluostar optima plate reader (BMG). Measurements were carried out in 100 μl solution volume, in 96-well plates. The buffer used was 1 mM Tris/HCl, pH 8.0. […] AChE was incubated, at least 6 hours, with the molecules at different concentrations. 20 μM propidium iodide was added 10 min before fluorescence measurement."}, "[2]": {"target": "T2, AChE from bovine erythrocytes (Bos taurus, UniProt P23795)", "T2 construct": "0.02 units AChE (Sigma Chemical Co. from bovine erythrocytes); purchased Sigma Chemical Co; host or cells: bovine erythrocytes", "T2 sequence (P23795 31-614 isoform P23795-2 limits assumed)": "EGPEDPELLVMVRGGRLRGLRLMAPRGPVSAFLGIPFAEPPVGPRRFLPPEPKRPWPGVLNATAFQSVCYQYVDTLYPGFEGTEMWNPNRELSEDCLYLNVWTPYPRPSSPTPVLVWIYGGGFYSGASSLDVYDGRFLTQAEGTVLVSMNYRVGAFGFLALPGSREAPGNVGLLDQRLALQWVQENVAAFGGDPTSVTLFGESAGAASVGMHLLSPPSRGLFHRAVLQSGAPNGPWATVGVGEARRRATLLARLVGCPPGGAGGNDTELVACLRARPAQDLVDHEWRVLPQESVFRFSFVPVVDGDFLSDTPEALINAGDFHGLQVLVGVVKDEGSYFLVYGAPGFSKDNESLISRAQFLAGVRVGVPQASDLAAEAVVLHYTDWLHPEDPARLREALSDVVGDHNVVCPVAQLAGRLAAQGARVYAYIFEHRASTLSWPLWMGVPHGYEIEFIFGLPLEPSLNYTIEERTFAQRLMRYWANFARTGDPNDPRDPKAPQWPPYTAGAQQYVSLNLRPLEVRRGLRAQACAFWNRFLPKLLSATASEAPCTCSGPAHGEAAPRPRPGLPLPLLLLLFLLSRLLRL", "assay": "Acetylcholinesterase (AChE) inhibition (from bovine erythrocytes), Ellman method at 30° C., Digiscan 340T", "type": "biochemical", "settings": "bovine erythrocytes AChE, 30° C., 5 min preincubation; read-out: IC50 AchE", "method": "Acetylcholinesterase (AChE) Inhibition (from Bovine Erythrocytes)\nAChE inhibitory activity was evaluated at 30° C. by the colorimetric method reported by Ellman [Ellman, G. L.; Courtney, K. D.; Andres, B.; Featherstone, R. M. Biochem. Pharmacol. 1961, 7, 88-95]. The assay solution consisted of 0.1 M phosphate buffer pH 8, 0.3 mM 5,5′-dithiobis (2-nitrobenzoic acid) (DTNB, Ellman's reagent), 0.02 units AChE (Sigma Chemical Co. from bovine erythrocytes), and 0.5 mM acetylthiocholine iodide as the substrate of the enzymatic reaction. The compounds tested were added to the assay solution and preincubated with the enzyme for 5 min at 30° C. After that period, the substrate was added. The absorbance changes at 405 nm were recorded for 5 min with a microplate reader Digiscan 340T, the reaction rates were compared, and the percent inhibition due to the presence of test compounds was calculated. The reaction rate was calculated with, at least, triplicate measurements, and the percent inhibition due to the presence of test compound was calculated relative to the compound-free control."}, "[3]": {"tested_on": "human neuroblastoma cell line SH—SY5Y", "assay": "Toxicity measurement (LDH) in SH-SY5Y cells", "type": "cell-based", "settings": "24 hours exposure", "method": "The cytotoxicity effect of the molecules was tested in the human neuroblastoma cell line SH—SY5Y. These cells were cultured in 96-well plates in minimum essential medium, Han's F12 medium, supplemented with 10% fetal bovine serum, 1% glutamine and 1% penicillin/streptomycin, and grown in. a 5% CO2 humidified incubator at 37° C.\nThe cells were plated at 10^4 cells for each well, at least, 48 hours before the toxicity measure. Cells were exposed for 24 hours to the compounds at different concentrations (from 10^−5 to 10^−9), quantitative assessment of cell death was made by measurement of the intracellular enzyme lactate dehydrogenase (LDH) (citotoxicity detection kit, Roche). The cuantity of LDH was evaluated in a microplate reader Anthos 2010, at 492 and 620 nm. Controls were taken as 100% viability."}}}
{"smiles": "CN(CCCNc1c2c(nc3ccccc13)CCCC2)CCCNc1c2ccccc2nc2ccccc12", "note": "[Compound 21]", "values": [{"measurement": "Antioxidant activity", "setting": "[1]", "result": 10, "unit": "µM"}, {"measurement": "IC50", "setting": "BuChE from human serum", "result": 0.07, "unit": "µM"}, {"measurement": "Propidium competition", "setting": "AChE peripheral site", "result": 1000, "unit": "µM"}, {"measurement": "IC50", "setting": "[2]", "result": 0.004, "unit": "µM"}, {"measurement": "Toxicity", "setting": "[3]", "result": ">100", "unit": "µM"}]}
